Measured values from article PMC9609428, “Rational Design and Synthesis of New Selective COX-2 Inhibitors with In Vivo PGE2-Lowering Activity by Tethering Benzenesulfonamide and 1,2,3-Triazole Pharmacophores to Some NSAIDs” (Pharmaceuticals, 2022).
Where “and” joins values, the source holds several entries; their conditions need not be identical. Equal entries are not always repeated. Marks after values point to notes of the source that are not given here.

Key:
[1] = test system: prostaglandin E2 (PGE2); experiment: In vivo estimation of rat serum prostaglandin E2 (PGE2); settings: carrageenan-injected rats, 10 µmol/kg b.wt po, after 8 h; for PGE2 Serum Conc.: mean ± SEM, n = 5
Protocol: Measuring plasma levels of prostaglandin E2 is one of the substantial parameters in confirming the in vivo COX-2 inhibition.
(approved by HU-IACUC). For more details, see Page S16, Supplementary File. […]
4.2.4. Estimation of rat serum prostaglandin E2 (PGE2) […]
procedure using EIA PGE2 kit (Aldrich, Steinheim, Germany). The kits as well as blood samples were […]
to a monoclonal antibody to PGE2 in kit. Excess reagents were removed followed by adding the substrate was added and incubated for short time. When a yellow color generate the optical density […]

[2] = test system: carrageenan-induced paw edema; experiment: In vivo carrageenan-induced paw edema in mice; settings: for Thickness of Edema, 0 h / percentage anti-inflammatory activity (AI%), 2 h / Thickness of Edema, 2 h / percentage anti-inflammatory activity (AI%), 4 h / Thickness of Edema, 4 h / percentage anti-inflammatory activity (AI%), 6 h / Thickness of Edema, 6 h / percentage anti-inflammatory activity (AI%), 8 h / Thickness of Edema, 8 h: 10 µmol/kg b.wt po; for Thickness of Edema, 0 h / Thickness of Edema, 2 h / Thickness of Edema, 4 h / Thickness of Edema, 6 h / Thickness of Edema, 8 h: mean ± SEM, n = 5; for percentage anti-inflammatory activity (AI%), 2 h / Thickness of Edema, 2 h: 2 h after carrageenan; for percentage anti-inflammatory activity (AI%), 4 h / Thickness of Edema, 4 h: 4 h after carrageenan; for percentage anti-inflammatory activity (AI%), 6 h / Thickness of Edema, 6 h: 6 h after carrageenan; for percentage anti-inflammatory activity (AI%), 8 h / Thickness of Edema, 8 h: 8 h after carrageenan; for ED50: Mus musculus, paw edema inhibition 8 h after carrageenan, doses 5, 10, 20, 30 and 40 µmol/kg, read-out: ED50 (95% Confidence Level)
[3] = molecular target: T1, human COX-2 (Homo sapiens, UniProt P35354); experiment: In vitro human COX-2 enzymatic inhibitory activity (Cayman COX inhibitor screening assay kit); type: biochemical; settings: for SI COX-1/COX-2: COX-2 selectivity index: COX-1 IC50/COX-2 IC50; for IC50: mean ± SEM of triplicate determinations
T1 construct: purchased Cayman Chemicals Inc., Ann Arbor, MI, USA 560131
T1 sequence (P35354 18-604): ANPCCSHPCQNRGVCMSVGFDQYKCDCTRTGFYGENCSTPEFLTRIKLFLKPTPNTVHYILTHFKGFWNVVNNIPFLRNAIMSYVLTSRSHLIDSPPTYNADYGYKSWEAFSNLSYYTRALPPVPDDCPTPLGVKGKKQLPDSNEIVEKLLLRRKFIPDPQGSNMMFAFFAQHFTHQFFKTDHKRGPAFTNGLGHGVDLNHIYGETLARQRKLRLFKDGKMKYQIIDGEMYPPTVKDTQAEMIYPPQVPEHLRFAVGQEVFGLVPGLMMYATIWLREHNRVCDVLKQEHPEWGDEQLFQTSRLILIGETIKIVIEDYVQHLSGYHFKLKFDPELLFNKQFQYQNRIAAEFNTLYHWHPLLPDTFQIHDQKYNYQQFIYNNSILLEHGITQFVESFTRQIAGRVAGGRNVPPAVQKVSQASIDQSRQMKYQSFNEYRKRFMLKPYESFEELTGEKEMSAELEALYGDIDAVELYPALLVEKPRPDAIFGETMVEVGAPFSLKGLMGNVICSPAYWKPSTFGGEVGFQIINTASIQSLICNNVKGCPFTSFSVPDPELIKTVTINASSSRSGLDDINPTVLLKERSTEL
Protocol: (§1) Inhibitory activities were defined as a test compound concentration achieving 50% human COX-1 or human COX-2 inhibition. The selectivity of compounds was referred to as a compound’s selectivity index values calculated as IC50 (COX-1)/IC50 (COX-2).
(§2) In vitro human COX-1 and human COX-2 enzymatic inhibitory activity of the tested compounds as well as the reference drugs was carried out according to the previously mentioned procedures; for details, see Page S15, Supplementary File.
(§3) 4.2. Biological screening
(§4) 4.2.1. In vitro human COX-1 and human COX-2 enzymatic inhibitory activities In vitro human COX-1 and human COX-2 enzymatic inhibitory activity of the tested compounds as well as the reference drugs was carried out according to the previously mentioned procedures [1][2]depending on Cayman colorimetric COX (ovine) inhibitor screening assay kit (Catalog No.
(§5) All reagents, test solutions and experimental procedures were performed in correspondence to both the manufacturer’s instructions and previously reported methods. Briefly, […] of different concentrations of tested compound solutions were added to a series of supplied reaction buffer solutions (960 µL, 0.1 M Tris-HCl, pH 8.0 containing 5 mM EDTA and 2 mM phenol) with either COX-1 or COX-2 (10 µL) enzyme in the presence of heme (10 µL). 10 µL of Arachidonic Acid (100 µM) solution were added to the mixtures of the enzyme and tested compounds, After incubating for 5 min at 25 °C followed by stopping COX reaction by adding of 50 µL of 1 M HCl. Moreover, after adding 100 µL of saturated stannous chloride solution, the absorbance was measured spectrophotometrically using plate reader. measuring the […]
(§6) percentage of human COX-1 or human COX-2 enzymatic inhibition of five different concentrations of each compound and then concentration-inhibition response curve were plotted to obtain IC50 values(three determinations). […]

[4] = molecular target: T2, (Ovis aries, UniProt P05979); experiment: In vitro human COX-1 enzymatic inhibitory activity (Cayman COX inhibitor screening assay kit); type: biochemical; settings: mean ± SEM of triplicate determinations
T2 construct: purchased Cayman Chemicals Inc., Ann Arbor, MI, USA 560131
T2 sequence (P05979 25-600): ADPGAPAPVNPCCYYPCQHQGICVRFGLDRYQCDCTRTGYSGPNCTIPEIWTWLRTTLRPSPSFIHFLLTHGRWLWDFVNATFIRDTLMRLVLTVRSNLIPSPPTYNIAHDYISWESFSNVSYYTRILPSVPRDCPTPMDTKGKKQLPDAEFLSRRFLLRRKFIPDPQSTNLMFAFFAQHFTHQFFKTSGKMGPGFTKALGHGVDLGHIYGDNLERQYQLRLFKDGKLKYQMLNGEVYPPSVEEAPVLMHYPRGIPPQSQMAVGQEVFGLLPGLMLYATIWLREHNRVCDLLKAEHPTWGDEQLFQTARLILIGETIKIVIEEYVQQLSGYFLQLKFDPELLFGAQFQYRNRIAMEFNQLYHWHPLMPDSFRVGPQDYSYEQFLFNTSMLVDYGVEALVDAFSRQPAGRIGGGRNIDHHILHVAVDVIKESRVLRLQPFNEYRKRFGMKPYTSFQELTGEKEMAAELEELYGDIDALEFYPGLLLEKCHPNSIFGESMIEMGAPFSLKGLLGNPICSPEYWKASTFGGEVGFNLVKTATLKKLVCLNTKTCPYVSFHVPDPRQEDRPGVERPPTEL
Protocol: as §1, §2, §3, §4, §5, §6

| SI COX-1/COX-2 [3] | IC50 [3] [nM] | IC50 [4] [nM] | melting point [°C] | SMILES | % Inhibition of PGE2 production [1] [%] | PGE2 Serum Conc. [1] | % Inhibition of PGE2 production ([1]; listed as celecoxib) [%] | Thickness of Edema, 0 h [2] [mm] | percentage anti-inflammatory activity (AI%), 2 h [2] [%] | Thickness of Edema, 2 h [2] [mm] | percentage anti-inflammatory activity (AI%), 4 h [2] [%] | Thickness of Edema, 4 h [2] [mm] | percentage anti-inflammatory activity (AI%), 6 h [2] [%] | Thickness of Edema, 6 h [2] [mm] | percentage anti-inflammatory activity (AI%), 8 h [2] [%] | Thickness of Edema, 8 h [2] [mm] | ED50 [2] [µmol/kg] |
| --- | --- | --- | --- | --- | --- | --- | --- | --- | --- | --- | --- | --- | --- | --- | --- | --- | --- |
| – | – | – | – | Cc1ccc(-c2cc(C(F)(F)F)nn2-c2ccc(S(N)(=O)=O)cc2)cc1 [Celecoxib, celecoxib, reference compound] | 78.62 | 157.245 ± 7.33 ^c,d pg/mL | 78.62 | 2.10 ± 0.005 | 70.86 | 2.54 ± 0.007 | 79.27 | 2.44 ± 0.011 | 87.28 | 2.32 ± 0.010 | 89.01 | 2.30 ± 0.009 | 16.2 |
| 65.89 | 90 ± 0.6 | 5930 ± 88.2 | – | [N-]=[N+]=Nc1ccc(S(=O)(=O)Nc2ncccn2)cc1 [Compound 1c, 4-Azido-N-(pyrimidin-2-yl)benzenesulfonamide] | – | – | – | – | – | – | – | – | – | – | – | – | – |
| 46 | 100 ± 3.3 | 4600 ± 115 | – | Cc1ccnc(NS(=O)(=O)c2ccc(N=[N+]=[N-])cc2)n1 [Compound 1d, 4-Azido-N-(4-methylpyrimidin-2-yl)benzenesulfonamide] | – | – | – | – | – | – | – | – | – | – | – | – | – |
| 91.44 | 90 ± 0.3 | 8230 ± 66.7 | 233 to 235 | CC(=O)c1nnn(-c2ccc(S(=O)(=O)Nc3ncccn3)cc2)c1C [Compound 4c, 4-(4-Acetyl-5-methyl-1H-1,2,3-triazol-1-yl)-N-(pyrimidin-2-yl)benzenesulfonamide] | – | – | – | – | – | – | – | – | – | – | – | – | – |
| 84.27 | 110 ± 5.7 | 9270 ± 66.7 | 241 to 243 | CC(=O)c1nnn(-c2ccc(S(=O)(=O)Nc3nccc(C)n3)cc2)c1C [Compound 4d, 4-(4-Acetyl-5-methyl-1H-1,2,3-triazol-1-yl)-N-(4-methylpyrimidin-2-yl)benzenesulfonamide] | – | – | – | – | – | – | – | – | – | – | – | – | – |
| 114.13 | 80 ± 0.6 | 9130 ± 88.2 | 205 to 207 | CC(=NNC(=O)C(C)c1ccc(CC(C)C)cc1)c1nnn(-c2ccc(S(N)(=O)=O)cc2)c1C (stereo not shown) [Compound 6a, 4-(4-(1-(2-(2-(4-Isobutylphenyl)propanoyl)hydrazineylidene)ethyl)-5-methyl-1H-1,2,3-triazol-1-yl)benzenesulfonamide] | – | – | – | – | – | – | – | – | – | – | – | – | – |
| – | – | – | – | O=C(O)Cc1ccccc1Nc1c(Cl)cccc1Cl [Diclofenac, diclofenac, reference compound] | 72.27 | 203.973 ± 6.35 ^c,d pg/mL | – | 2.08 ± 0.006 | 41.72 | 2.96 ± 0.009 | 55.49 | 2.81 ± 0.009 | 67.63 | 2.64 ± 0.01 | 72.53 | 2.58 ± 0.01 | 18.4 |

| SMILES | SI COX-1/COX-2 [3] | IC50 [3] [nM] | IC50 [4] [nM] | melting point [°C] | % Inhibition of PGE2 production [1] [%] | PGE2 Serum Conc. [1] | % Inhibition of PGE2 production ([1]; listed as celecoxib) [%] | Thickness of Edema, 0 h [2] [mm] | percentage anti-inflammatory activity (AI%), 2 h [2] [%] | Thickness of Edema, 2 h [2] [mm] | percentage anti-inflammatory activity (AI%), 4 h [2] [%] | Thickness of Edema, 4 h [2] [mm] | percentage anti-inflammatory activity (AI%), 6 h [2] [%] | Thickness of Edema, 6 h [2] [mm] | percentage anti-inflammatory activity (AI%), 8 h [2] [%] | Thickness of Edema, 8 h [2] [mm] | ED50 [2] [µmol/kg] |
| --- | --- | --- | --- | --- | --- | --- | --- | --- | --- | --- | --- | --- | --- | --- | --- | --- | --- |
| CC(=NNC(=O)C(C)c1ccc(CC(C)C)cc1)c1nnn(-c2ccc(S(=O)(=O)Nc3nccs3)cc2)c1C (stereo not shown) [Compound 6b, 4-(4-(1-(2-(2-(4-Isobutylphenyl)propanoyl)hydrazineylidene)ethyl)-5-methyl-1H-1,2,3-triazol-1-yl)-N-(thiazol-2-yl)benzenesulfonamide] | 329 and 329.25 | 40 ± 0.7 | 13170 ± 120 | – | 90.70 | 68.388 ± 7.13 ^c,d pg/mL | – | 2.14 ± 0.006 | 86.75 | 2.34 ± 0.009 | 94.51 | 2.23 ± 0.009 | 97.69 | 2.18 ± 0.009 | 99.45 | 2.15 ± 0.007 | 11.7 |
| CC(=NNC(=O)Cc1ccccc1Nc1c(Cl)cccc1Cl)c1nnn(-c2ccc(S(=O)(=O)Nc3nccs3)cc2)c1C [Compound 6e, 4-(4-(1-(2-(2-(2-((2,6-Dichlorophenyl)amino)phenyl)acetyl)hydrazineylidene)ethyl)-5-methyl-1H-1,2,3-triazol-1-yl)-N-(thiazol-2-yl)benzenesulfonamide] | 204 and 204.6 | 50 ± 0.6 | 10230 ± 33.3 | – | 74.80 | 185.329 ± 6.79 ^c,d pg/mL | – | 2.12 ± 0.007 | 58.28 | 2.75 ± 0.008 | 68.90 | 2.63 ± 0.010 | 75.72 | 2.54 ± 0.009 | 78.02 | 2.52 ± 0.006 | 18.2 |
| CC(=NNC(=O)c1ccccc1O)c1nnn(-c2ccc(S(=O)(=O)Nc3nccc(C)n3)cc2)c1C [Compound 6j, 4-(4-(1-(2-(2-Hydroxybenzoyl)hydrazineylidene)ethyl)-5-methyl-1H-1,2,3-triazol-1-yl)-N-(4-methylpyrimidin-2-yl)benzenesulfonamide] | 312 and 312.5 | 40 ± 0.6 | 12500 ± 57.7 | – | 86.34 | 100.435 ± 5.66 ^c,d pg/mL | – | 2.08 ± 0.007 | 73.51 | 2.48 ± 0.005 | 82.32 | 2.37 ± 0.009 | 88.44 | 2.28 ± 0.011 | 91.21 | 2.24 ± 0.009 | 13.4 |
